Consider twelve compounds from PubChem BioAssay (NCI).

Among the test systems are HCC-2998 colon; NCI-H460 lung; SF-268 CNS; A549 NSCLC; U251 CNS; OVCAR-8 ovarian; KM12 colon; UO-31 renal; M14 melanoma; PC-3 prostate.
Common to all, as to assay: DTP human tumour cell line panel, 48 h

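Cultured in 96-well plates, cells were exposed to test compound for 48 hours across five concentrations. GI50: concentration for 50% inhibition of growth. TGI: total growth inhibition.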 Bounds are passed on as bounds.

Usually GI50 stands for the concentration giving 50% growth inhibition. A word on the TGI: it is the concentration giving total growth inhibition. Read a low TGI as greater sensitivity of the cells. Turning to `O=C1c2c(Cl)c(Cl)c(Cl)c(Cl)c2C(=O)C2(Cl)CC=CCC12Cl` (stereo not given), the GI50 is 1.78 µM in the assay with HCC-2998 colon; 3.09 µM in the assay with NCI-H460 lung; 1.76 µM in the assay with SF-268 CNS; 4.28 µM in the assay on A549 NSCLC; 1.67 µM in the assay on U251 CNS; 1.64 µM with OVCAR-8 ovarian. Further, the GI50 in the assay with KM12 colon was 1.84 µM; with UO-31 renal it was 1.71 µM; with M14 melanoma, 1.67 µM; in the assay on PC-3 prostate it was 1.8 µM. The concentration for total growth inhibition (TGI) with HCC-2998 colon stood at 3.3 µM; in the assay on NCI-H460 lung it was 11 µM; in the assay on SF-268 CNS, 3.2 µM; with A549 NSCLC it was 16.3 µM; in the assay on U251 CNS, 3.06 µM; in the assay on OVCAR-8 ovarian, 3.12 µM. The TGI stood at 3.56 µM in the assay with KM12 colon, 3.28 µM in the assay with UO-31 renal, 3.19 µM in the assay with M14 melanoma and 3.51 µM with PC-3 prostate.

As for `CN(C)CCOc1ccccc1NC1=C(Cl)C(=O)C(Nc2ccccc2OCCN(C)C)=C(Cl)C1=O`, the GI50 was 5.74 µM in the assay with HCC-2998 colon; 27.8 µM in the assay on NCI-H460 lung; 9.76 µM with SF-268 CNS; greater than 47.3 µM with A549 NSCLC; 10.2 µM with U251 CNS; 4.16 µM with OVCAR-8 ovarian. Also, the GI50 with KM12 colon is 20.9 µM; in the assay on UO-31 renal it was 0.735 µM; in the assay with M14 melanoma, greater than 27 µM; in the assay on PC-3 prostate, 9.84 µM. Also, the TGI in the assay with HCC-2998 colon was greater than 21.6 µM; in the assay with NCI-H460 lung it was greater than 96.4 µM; in the assay with SF-268 CNS, 36.3 µM; in the assay on A549 NSCLC, greater than 100 µM; in the assay on U251 CNS it was 39.5 µM; with OVCAR-8 ovarian, 20.7 µM. Also, the TGI is greater than 100 µM in the assay on KM12 colon, 2.22 µM with UO-31 renal, greater than 84.6 µM in the assay on M14 melanoma and greater than 31.8 µM in the assay on PC-3 prostate.

In the case of `CC1(C)CCC(C)(C)c2cc(NC(=O)c3ccc(C(=O)O)cc3)ccc21`, the TGI in the assay on HCC-2998 colon was greater than 60 µM; with NCI-H460 lung it was greater than 62.7 µM; in the assay with SF-268 CNS, greater than 100 µM; in the assay with A549 NSCLC it was greater than 100 µM; with U251 CNS, greater than 62.5 µM; with OVCAR-8 ovarian, greater than 100 µM. The TGI in the assay with KM12 colon is 59.5 µM; with UO-31 renal, 39.5 µM; in the assay on M14 melanoma it was greater than 65.1 µM; in the assay on PC-3 prostate it was greater than 70.6 µM.

Consider `CCNCCNc1cc(-c2ccc(C(F)(F)F)cc2)c(C#N)c2nc3cc(Cl)c(Cl)cc3n12`, for which the GI50 with HCC-2998 colon was 2.34 µM; in the assay on NCI-H460 lung it was 1.66 µM; in the assay with SF-268 CNS, 1.6 µM; with A549 NSCLC it was 1.37 µM; with U251 CNS it was 1.67 µM; with OVCAR-8 ovarian, 1.74 µM. Also, the GI50 in the assay on KM12 colon is 1.69 µM; in the assay with UO-31 renal it was 1.65 µM; with M14 melanoma it was 1.59 µM; in the assay with PC-3 prostate it was 1.71 µM. Moreover, the concentration for total growth inhibition (TGI) with HCC-2998 colon came to 4.14 µM; in the assay with NCI-H460 lung, 3.27 µM; in the assay with SF-268 CNS it was 3.22 µM; in the assay on A549 NSCLC, 2.77 µM; with U251 CNS, 3.08 µM; with OVCAR-8 ovarian, 3.41 µM. The concentration for total growth inhibition (TGI) in the assay on KM12 colon was 3.2 µM; in the assay on UO-31 renal it was 3.25 µM; in the assay with M14 melanoma, 3.12 µM; in the assay on PC-3 prostate, 3.4 µM.

For `O=c1oc2ccc(Br)cc2c(=O)n1-c1ccc(Cl)cc1F`, the GI50 in the assay on HCC-2998 colon was 2.68 µM; with NCI-H460 lung, 0.739 µM; with SF-268 CNS it was 0.917 µM; with A549 NSCLC, 2.9 µM; in the assay on U251 CNS, 1.26 µM; in the assay on OVCAR-8 ovarian it was 1.7 µM. Further, the GI50 is 2.03 µM in the assay with KM12 colon, 0.349 µM in the assay on UO-31 renal, 0.925 µM in the assay with M14 melanoma and 1.87 µM in the assay on PC-3 prostate. Moreover, the concentration for total growth inhibition (TGI) with HCC-2998 colon was 9.53 µM; in the assay on NCI-H460 lung, 10.7 µM; in the assay on SF-268 CNS, 9.23 µM; in the assay with A549 NSCLC, greater than 94.8 µM; in the assay with U251 CNS, greater than 39.2 µM; with OVCAR-8 ovarian it was greater than 26.2 µM. The TGI with KM12 colon came to 4.87 µM; in the assay on UO-31 renal it was 3.03 µM; in the assay with M14 melanoma, 6.24 µM; in the assay on PC-3 prostate it was 7.81 µM.

As for `COc1ccc(NC(=O)c2ccc(NC3=C(Cl)C(=O)N(Cc4ccccc4)C3=O)cc2)c(OC)c1`, the GI50 in the assay on HCC-2998 colon is 10.1 µM; with NCI-H460 lung, 38.4 µM; in the assay with SF-268 CNS, 29.1 µM; in the assay on A549 NSCLC it was 45.4 µM; in the assay with U251 CNS it was 27.2 µM; with OVCAR-8 ovarian, 29.2 µM. For the same compound, the GI50 in the assay with KM12 colon was 27.7 µM; in the assay on UO-31 renal it was 40.5 µM; in the assay on M14 melanoma, 18.5 µM; in the assay on PC-3 prostate, 25.7 µM. In addition, the TGI in the assay on HCC-2998 colon is 21.7 µM; with NCI-H460 lung, greater than 100 µM; with SF-268 CNS, greater than 100 µM; with A549 NSCLC, greater than 100 µM; with U251 CNS it was 86.3 µM; in the assay with OVCAR-8 ovarian it was greater than 100 µM. Also, the TGI in the assay with KM12 colon was 92.8 µM; in the assay with UO-31 renal, greater than 100 µM; in the assay with M14 melanoma, 48 µM; in the assay on PC-3 prostate, greater than 100 µM.

Regarding `COc1cc(C2CC(=O)Nc3c2c(C)nn3-c2nc3ccccc3[nH]2)cc(OC)c1O` (stereo not given), the GI50 was 6.48 µM with HCC-2998 colon; 3.19 µM with NCI-H460 lung; 3.83 µM in the assay with SF-268 CNS; 3.45 µM in the assay with A549 NSCLC; 3.49 µM with U251 CNS; 3.4 µM in the assay with OVCAR-8 ovarian. The GI50 was 3.26 µM with KM12 colon, 2.49 µM in the assay on UO-31 renal, 2.12 µM in the assay with M14 melanoma and 3.49 µM in the assay on PC-3 prostate. The TGI is 35.7 µM in the assay with HCC-2998 colon; greater than 35.1 µM with NCI-H460 lung; 45 µM in the assay with SF-268 CNS; greater than 40.2 µM with A549 NSCLC; greater than 40.8 µM with U251 CNS; greater than 32.1 µM with OVCAR-8 ovarian. In addition, the concentration for total growth inhibition (TGI) is 12.4 µM in the assay on KM12 colon, 7.7 µM with UO-31 renal, 5.53 µM in the assay with M14 melanoma and 38.8 µM in the assay on PC-3 prostate.

With `O=c1cccc2n1CC1CNC[C@H]2C1`, the TGI in the assay with HCC-2998 colon, in the assay on NCI-H460 lung, in the assay with SF-268 CNS, in the assay with A549 NSCLC, in the assay on U251 CNS and in the assay with OVCAR-8 ovarian was greater than 100 µM throughout. Also, the total growth inhibition concentration (TGI) in the assay on KM12 colon, in the assay with UO-31 renal, in the assay with M14 melanoma and with PC-3 prostate was greater than 100 µM in each case.

`COc1ccc(OC)c(/C=C/c2ccnc3ccccc23)c1`: the TGI was found to be 12.9 µM with HCC-2998 colon; 12.3 µM in the assay with NCI-H460 lung; 18.2 µM in the assay on SF-268 CNS; 14.7 µM in the assay with A549 NSCLC; 5.66 µM in the assay with U251 CNS; 1.88 µM in the assay on OVCAR-8 ovarian. Also, the TGI in the assay with KM12 colon was determined as 11.5 µM; in the assay with UO-31 renal, 6.99 µM; in the assay on M14 melanoma, 17.8 µM; in the assay on PC-3 prostate, 6.76 µM.

On to `Cn1c(-c2c(N)n(Cc3ccc(F)cc3)c3nc(C#N)c(C#N)nc23)nc2ccccc21`, for which the GI50 in the assay with HCC-2998 colon is 1.35 µM; in the assay with NCI-H460 lung it was 2.21 µM; in the assay on SF-268 CNS it was 5.47 µM; with A549 NSCLC, 5.48 µM; in the assay with U251 CNS, 3.18 µM; in the assay on OVCAR-8 ovarian it was 1.63 µM. The GI50 with KM12 colon was 2.19 µM; in the assay with UO-31 renal it was 2.51 µM; in the assay with M14 melanoma it was 3.48 µM; in the assay on PC-3 prostate, 2.61 µM. The TGI was 3.05 µM with HCC-2998 colon; 25.2 µM in the assay with NCI-H460 lung; greater than 50 µM in the assay with SF-268 CNS; greater than 50 µM in the assay with A549 NSCLC; 15 µM with U251 CNS; 11.8 µM in the assay on OVCAR-8 ovarian. Moreover, the TGI with KM12 colon was 11.2 µM; with UO-31 renal, greater than 50 µM; in the assay on M14 melanoma, greater than 50 µM; with PC-3 prostate, greater than 50 µM.

`C=C1C(=O)O[C@H]2[C@H]1CC/C(CNC(=O)/C=C/c1ccccc1F)=C\CC[C@@]1(C)O[C@@H]21`: the GI50 in the assay on HCC-2998 colon was 1.88 µM; in the assay on NCI-H460 lung, 2.36 µM; in the assay on SF-268 CNS it was 2.83 µM; in the assay on A549 NSCLC, 7 µM; in the assay with U251 CNS it was 1.86 µM; in the assay with OVCAR-8 ovarian, 2.95 µM. Moreover, the GI50 in the assay with KM12 colon was 4.4 µM; with UO-31 renal, 1.34 µM; in the assay on M14 melanoma, 1.34 µM; in the assay on PC-3 prostate, 2 µM. Further, the TGI in the assay on HCC-2998 colon amounted to 3.59 µM; with NCI-H460 lung it was 6.19 µM; with SF-268 CNS, 9.8 µM; in the assay on A549 NSCLC, 24.5 µM; with U251 CNS, 3.75 µM; with OVCAR-8 ovarian, 11.8 µM. In addition, the TGI in the assay with KM12 colon amounted to 17.3 µM; in the assay with UO-31 renal, 2.91 µM; with M14 melanoma, 3.05 µM; in the assay with PC-3 prostate it was 4.29 µM.

Turning to `CCC1(c2ccc(N)cc2)CCC(=O)NC1=O` (stereo not given), the TGI is greater than 5000 µM with HCC-2998 colon; greater than 5000 µM in the assay with NCI-H460 lung; greater than 5000 µM in the assay with SF-268 CNS; greater than 5000 µM in the assay on A549 NSCLC; greater than 4060 µM in the assay with U251 CNS; greater than 5000 µM in the assay with OVCAR-8 ovarian. Further, the TGI in the assay with KM12 colon was greater than 3870 µM; in the assay with UO-31 renal, greater than 3950 µM; in the assay with M14 melanoma, greater than 4560 µM; in the assay with PC-3 prostate it was 4550 µM.
